Tests used:
[1] = Cmax in male Sprague-Dawley rat at 5 mg/kg, po measured after 24 hrs by LC/MS/MS analysis; assay type: ADME, organism-based; details: in vivo
[2] = Inhibition of IDH1 R132C mutant in human HT-1080 cells incubated for 72 hrs by measuring 2-HG production by fluorescence based analysis; assay type: functional, cell-based; details: HT-1080, 72 h
[3] = AUC(0 to infinity) in male ICR mouse at 10 mg/kg, po measured after 8 hrs by LC/MS/MS analysis; assay type: ADME, organism-based; details: in vivo
[4] = Inhibition of IDH2 R140Q mutant in human U-87 MG cells incubated for 72 hrs by measuring 2-HG production by fluorescence based analysis; assay type: functional, cell-based, U-87MG ATCC; details: Homo sapiens, U-87 MG, 72 h
[5] = Clearance in male Sprague-Dawley rat at 1 mg/kg, iv measured after 24 hrs by LC/MS/MS analysis; assay type: ADME, organism-based; details: in vivo
[6] = Metabolic stability in male ICR mouse liver microsomes assessed as parent compound remaining at 1 uM measured after 30 mins in presence of NADPH by LC-MS analysis; assay type: ADME, Microsome; details: read-out: Stability
[7] = Apparent permeability across basolateral to apical side in human Caco-2 cells at 10 uM incubated for 1 hrs by LC-MS/MS analysis
[8] = Oral bioavailability in male ICR mouse at 10 mg/kg measured after 8 hrs by LC/MS/MS analysis; assay type: ADME, organism-based; details: in vivo
[9] = Inhibition of IDH2 R140Q mutant in human TF-1 cells incubated for 72 hrs by measuring 2-HG production by fluorescence based analysis; assay type: functional, cell-based; details: TF-1, 72 h
[10] = Volume of distribution at steady state in male ICR mouse at 2.5 mg/kg, iv measured after 8 hrs by LC/MS/MS analysis; assay type: ADME, organism-based; details: in vivo, read-out: Vdss
[11] = Volume of distribution at steady state in male Sprague-Dawley rat at 1 mg/kg, iv measured after 24 hrs by LC/MS/MS analysis; assay type: ADME, organism-based; details: in vivo, read-out: Vdss

Q: What does the source list for `C[C@@H](Nc1nc(N[C@H](C)C(F)(F)F)nc(C2=C(F)[C@H](O)C(F)(F)CC2)n1)C(F)(F)F` [RANOSIDENIB]?
A: Cmax [1]: 1490 ng/mL; IC50 [2]: 26 nM; AUC(0-inf) [3]: 62000 ng·h/mL; IC50 [4]: 31 nM; clearance [5]: 0.8 mL/min/kg; remaining at 0.5 h, 1 µM [6]: 98.4%; Papp B→A at 1 h, 10 µM [7]: 24 ×10⁻⁶ cm/s; bioavailability [8]: 84.2%; IC50 [9]: 21 nM; Vd [10]: 2.57 L/kg; Vd [11]: 3.67 L/kg

— ChEMBL document CHEMBL6103672, “Discovery of HMPL-306 (Ranosidenib), a New Potent and Selective Dual Inhibitor of Mutant IDH1 and 2 in Clinical Development for Cancer Treatment” (ACS Med Chem Lett, 2025)
